{
  "source": "paper PMC5306062",
  "about": "“Pharmacology and toxicology of the novel investigational agent Cantrixil (TRX-E-002-1)” (Cancer Chemotherapy and Pharmacology, 2016)",
  "key": {"[1]": {"experiment": "Second dog pharmacokinetic study, 10 mg/kg intraperitoneal, four dogs", "format": "in vivo, beagle dogs", "details": "dog M + F, 10 mg/kg i.p., second study", "protocol": "In beagle dogs, plasma concentrations of unconjugated TRX-E-002-1 at early time points (1–4 h’ post-dose) were 76–93% of the total levels (parent + glucuronide). At 8 h, the plasma concentrations of the glucuronide metabolites were similar to those of parent drug. By 24 h’ post-dose, the concentrations of TRX-E-002-1-glucuronide in plasma and gastrointestinal tissues (except colon) were 2–12 times higher than those of the parent drug. The increased levels of TRX-E-0021-glucuronide relative to those of parent drug at 24 h post-dose may reflect slower elimination of the glucuronide metabolites."}, "[2]": {"experiment": "Rat pharmacokinetics after single intraperitoneal injection of 100 mg/kg", "format": "in vivo, Sprague–Dawley rats", "protocol": "The pharmacokinetics of TRX-E-002-1 was evaluated in male female Sprague–Dawley rats following a single intraperitoneal injection of 100 mg/kg TRX-E-002-1 in 20% SBECD vehicle. Absorption was rapid, with C max mean plasma concentrations reached 0.25/1 h after dosing in female/male rats. […] Mean plasma levels decreased to below the limit of quantification by 24 h (not shown). The AUC0−∞ value was 29,537 and 44,702 ng h/mL in female and male rats, respectively (Table 2). High tissue levels were observed 0.5–6 h after dosing, with levels higher than the plasma concentration in pancreas, ovaries, large intestine, skin, kidneys, liver, stomach and adrenal glands (not shown). Treatment of plasma and tissue samples with glucuronidase indicated the presence of low levels of a glucuronide conjugate of TRX-E-002-1 (not shown). Other metabolic pathways have not yet been investigated. […] Parent drug was excreted in the urine and faeces, and high levels of the glucuronide metabolite were found in the faeces.\nTissue concentrations of total drug (parent + glucuronide) were also similar to those in plasma except in liver, where they were 2–3 times higher."}, "[3]": {"tested_on": "disseminated ovarian cancer model", "experiment": "Disseminated ovarian cancer model, intraperitoneal dosing", "format": "in vivo, mice", "from_the_text": "In vivo, TRX-E-002-1, formulated in 20% SBECD, was active in a disseminated ovarian cancer model and a recurrent ovarian cancer model in which tumour recurrence is investigated following initial treatment of the OCSC2-inoculated mice with paclitaxel. In both models, TRX-E-002-1 inhibited tumour growth following once daily intraperitoneal administration.\nThe combination of TRX-E-002-1 and cisplatin was investigated in the murine model of disseminated ovarian cancer."}, "[4]": {"experiment": "Dog 14-day pilot toxicity study with toxicokinetics, intraperitoneal", "details": "dog M + F, Day 1", "method": "For the dog 14-day pilot study, male and female beagle dogs were dosed once daily with intraperitoneal injections of vehicle (1:2 dilutions of 20% SBECD in 0.9% saline) or Cantrixil (10, 30 or 100 mg/kg) for 14 days. The doses were administered via an implanted catheter."}, "[5]": {"tested_on": "micronucleated polychromatic erythrocytes (PCEs) in bone marrow", "experiment": "Bone marrow micronucleus test", "format": "in vivo, ARC(S) Swiss mice", "details": "positive control group", "protocol": "The assays were performed in compliance with GLP regulations.\nThe bone marrow micronucleus test was the in vivo part of the ICH genotoxicity testing battery and was conducted in ARC(S) Swiss mice. Eight groups of mice (10/sex/group) were given an intraperitoneal injection of vehicle (20% w/v SBECD) or Cantrixil at 50, 200 or 400 mg/kg and were killed 24 or 48 h later. Dimethyl-1,2 benzanthracene was used as the positive control. After preparation of the bone marrow cells, the number of micronucleated polychromatic erythrocytes (PCEs) was determined in 4000 PCEs per animal, and the proportion of PCEs in the total erythrocyte population in bone marrow was calculated from the examination of at least 500 erythrocytes as an index of bone marrow toxicity. […] The proportion of PCEs in the total erythrocyte population was decreased in both sexes at the 200 and 400 mg/kg doses at both kill times. TRX-E-002-1 is therefore considered clastogenic in this system at the described concentrations in vivo [the equivalent 200/400 mg/kg dose in a […] is 16.2 mg/kg (600 mg/m^2)/32.4 mg/kg (1200 mg/m^2) in a 60-kg human]."}, "[6]": {"tested_on": "c-Jun N-terminal kinase", "parameters": "method as in PMID 27196760", "details": "cited from earlier work"}, "[7]": {"tested_on": "mouse lymphoma L5178Y cells", "experiment": "In vitro mammalian cell mutation assay, thymidine kinase locus", "protocol": "Genotoxicity testing of TRX-E-002-1 was performed in an ICH-compliant test battery (see ICH Guideline S2A), comprising an in vitro bacterial reverse mutation test, an in vitro mammalian cell mutation assay and an in vivo rodent bone marrow micronucleus assay. The assays were performed in compliance with GLP regulations.\nThe in vitro mammalian cell mutation assay utilised the forward mutation system at the thymidine kinase locus of the mouse lymphoma L5178Y cells using a microtitre cloning technique. TRX-E-002-1 was tested in three experimental conditions: 3-h incubation at 37 °C with and without metabolic activation system (Aroclor-induced rat liver S9 mix), and a 24-h incubation without metabolic activation (i.e. continuous treatment)."}, "[8]": {"details": "female rats, 100 mg/kg i.p., plasma"}, "[9]": {"details": "10 μM SP600125, OCSC2 cells, Western blot"}},
  "note": "Like-named read-outs stand apart in the source and are kept apart here.",
  "data": [
    {"smiles": "COc1cc(C2COc3c(ccc(O)c3C)C2c2ccc(O)cc2)cc(OC)c1O", "note": "(racemic) [TRX-E-002]", "values": [
      {"measurement": "AUC0−∞", "setting": "[1]", "result": 1633, "unit": "ng·h/mL"},
      {"measurement": "AUClast", "setting": "[1]", "result": 1630, "unit": "ng·h/mL"},
      {"measurement": "C max", "setting": "[1]", "result": 425, "unit": "ng/mL"},
      {"measurement": "T max", "setting": "[1]", "result": 2, "unit": "h"},
      {"measurement": "T ½", "setting": "[1]", "result": 2.6, "unit": "h"},
      {"measurement": "AUClast", "setting": "[2]; [8]", "result": "29,396 ng h/mL"},
      {"measurement": "C max", "setting": "[2]; [8]", "result": 8355, "unit": "ng/mL"},
      {"measurement": "elimination half-life", "setting": "[2]; rats, interspecies comparison", "result": "about 2.5 h"},
      {"measurement": "tumour growth", "setting": "[3]; 100 mg/kg i.p. once daily in 20% SBECD for 13–14 days", "result": "significantly inhibited"},
      {"measurement": "AUC0−∞", "setting": "[4]; 10 mg/kg i.p.", "result": 4395, "unit": "ng·h/mL"},
      {"measurement": "AUClast", "setting": "[4]; 10 mg/kg i.p.", "result": 4390, "unit": "ng·h/mL"},
      {"measurement": "C max", "setting": "[4]; 10 mg/kg i.p.", "result": 626, "unit": "ng/mL"},
      {"measurement": "T max", "setting": "[4]; 10 mg/kg i.p.", "result": 2.0, "unit": "h"},
      {"measurement": "T ½", "setting": "[4]; 10 mg/kg i.p.", "result": 2.6, "unit": "h"},
      {"measurement": "AUC0−∞", "setting": "[4]; 30 mg/kg i.p.", "result": "11,300 ng h/mL"},
      {"measurement": "AUClast", "setting": "[4]; 30 mg/kg i.p.", "result": 8770, "unit": "ng·h/mL"},
      {"measurement": "T max", "setting": "[4]; 30 mg/kg i.p.", "result": 2.0, "unit": "h"},
      {"measurement": "T ½", "setting": "[4]; 30 mg/kg i.p.", "result": 2.5, "unit": "h"},
      {"measurement": "AUC0−∞", "setting": "[4]; 100 mg/kg i.p.", "result": "58,550 ng h/mL"},
      {"measurement": "AUClast", "setting": "[4]; 100 mg/kg i.p.", "result": "58,500 ng h/mL"},
      {"measurement": "C max", "setting": "[4]; 100 mg/kg i.p.", "result": 6795, "unit": "ng/mL"},
      {"measurement": "T max", "setting": "[4]; 100 mg/kg i.p.", "result": 1.25, "unit": "h"},
      {"measurement": "T ½", "setting": "[4]; 100 mg/kg i.p.", "result": 2.2, "unit": "h"}
    ]},
    {"smiles": "Cc1c2ccccc2c(C)c2c1ccc1ccccc12", "note": "[Dimethyl-1,2 benzanthracene, reference compound]", "values": [
      {"measurement": "frequency of micronucleated PCEs", "setting": "[5]", "result": "statistically significant increase"},
      {"measurement": "proportion of PCEs", "setting": "[5]", "result": "reduction"}
    ]},
    {"smiles": "Oc1c2ccccc2c2c3c(cccc13)N=N2", "note": "[SP600125]", "values": [
      {"measurement": "TRX-E-002-1-induced phosphorylation of c-Jun", "setting": "[6]; [9]", "result": "inhibited"},
      {"measurement": "phosphorylation of ERK", "setting": "[6]; [9]", "result": "without affecting"},
      {"measurement": "effect on anti-tumour activity of 0.245 μM TRX-E-002-1", "setting": "[6]; OCSC2 cells", "result": "blocked"}
    ]},
    {"smiles": "N.N.[Cl][Pt][Cl]", "note": "[cisplatin, reference compound]", "values": [
      {"measurement": "tumour growth during the 16-day treatment period", "setting": "[3]; TRX-E-002-1 100 mg/kg once daily, cisplatin 5 mg/kg once weekly, or both", "result": "significantly inhibited"},
      {"measurement": "tumour growth during the 5-week post-treatment period", "setting": "[3]; after 16-day treatment, TRX-E-002-1 100 mg/kg once daily, cisplatin 5 mg/kg once weekly, or both", "result": "decreased"}
    ]},
    {"smiles": "O=P1(N(CCCl)CCCl)NCCCO1", "note": "(centres unmarked) [cyclophosphamide]", "values": [
      {"measurement": "mutant frequency", "setting": "[7]; positive control, presence of S9", "result": "expected increases"}
    ]},
    {"smiles": "COS(C)(=O)=O", "note": "[methyl methanesulfonate]", "values": [
      {"measurement": "mutant frequency", "setting": "[7]", "result": "expected increases"}
    ]}
  ]
}
